Patent publication US20160274087A1, “SCREENING ASSAY FOR AGENTS THAT INFLUENCE BETA CELL NUMBER AND/OR PHENOTYPE” (VRIJE UNIVERSITEIT BRUSSEL, priority 2013, published 2016)

Columns and labels:
[1] = test system: rat beta cells; assay: Beta cell viability / cell death (propidium iodide assay); assay type: cell-based; details: LOPAC screen at 1 μM; adult rat beta cells; day 6; control medium 97
Description: Numbers of living beta cells were obtained by subtracting the PI-positive cell numbers from the Ho-positive cell numbers, and correcting for the percent insulin-negative cells, as determined following insulin-immunofluorescence staining. They were expressed as percent of the numbers on day 1. […] To detect beta cells that underwent two successive cycles, cells were sequentially exposed to two different thymidine-analogs, first EdU from day 3 to 6, and then BrdU (100 μmol/l) from day 7 to 10, with a 24-hour label-free period in between. EdU-positive (EdU^+) nuclei were detected with the Click-iT Assay kit (Invitrogen), while BrdU-positive (BrdU^+) nuclei were identified with anti-BrdU antibody.
Absolute number of cells was determined by whole-well imaging using the BD-PathwayBioimager855 (BD-Biosciences). IPLab and AttoVision software packages (BD-Biosciences) were used for image background subtraction, segmentation and quantification.
Freshly purified beta cells were cultured in control medium for 24 h prior to the addition of the LOPAC test compounds (day 1). The culture medium was refreshed on day 3 and the cells were then cultured further with 5-ethynyl-2′-deoxyuridine (EdU; 10 μM) up to day 6. […] Thus, a compound is considered a hit only if it increases the percent EdU incorporation to above three standard deviation of the plate-averaged percent EdU incorporation.

[2] = test system: alloxan-diabetic mice; assay: Implantation of in vitro expanded beta cells in alloxan-diabetic mice; assay type: in vivo
Description: FIG. 8. Alloxan-induced diabetes in mice can be reversed with implantation of in vitro-generated beta cells. Sorted beta cells were cultured in control medium or in the presence of HC up to day 9 and then switched to basal condition for the last six days of culture. IPGTT was used to determine glucose clearance rate. Glucose was administered (3 g/kg body weight) by in intraperitoneal injection into a 2 h-fasted animals and blood glucose levels were measured at the indicated time points during the following 120-min. Data are from animals transplanted with control cells (black triangles; n=3), in vitro expanded cells (black squares; n=5) and normal control animals (inverted triangles; n=2).
In this respect was it relevant to adjust culture conditions so that the expanded beta cell mass was not degranulated. We compared the in vivo function and hormone reserve of implants that were formed by equal numbers of beta cells collected from either control or HC-treated preparations, HC being withdrawn for the last 6 days (as in Table 7). At the end of 15 days culture, cell yield after HC was 54 to 110 percent higher than in control (paired cultures from three different islet isolation experiments), thus allowing preparation of more grafts per experiment. Respective grafts contained a similar number of beta cells and a similar total hormone content (for the three experiments between 10 to 15 μg insulin per graft). […] Both also presented an equally rapid normalization of glycemia following an intraperitoneal glucose load with similar kinetics to normal control animals (FIG. 8).

[3] = molecular target: T1, glucocorticoid receptor (GR) (Homo sapiens, UniProt P04150); details: cited from earlier work
T1 sequence (P04150 1-777): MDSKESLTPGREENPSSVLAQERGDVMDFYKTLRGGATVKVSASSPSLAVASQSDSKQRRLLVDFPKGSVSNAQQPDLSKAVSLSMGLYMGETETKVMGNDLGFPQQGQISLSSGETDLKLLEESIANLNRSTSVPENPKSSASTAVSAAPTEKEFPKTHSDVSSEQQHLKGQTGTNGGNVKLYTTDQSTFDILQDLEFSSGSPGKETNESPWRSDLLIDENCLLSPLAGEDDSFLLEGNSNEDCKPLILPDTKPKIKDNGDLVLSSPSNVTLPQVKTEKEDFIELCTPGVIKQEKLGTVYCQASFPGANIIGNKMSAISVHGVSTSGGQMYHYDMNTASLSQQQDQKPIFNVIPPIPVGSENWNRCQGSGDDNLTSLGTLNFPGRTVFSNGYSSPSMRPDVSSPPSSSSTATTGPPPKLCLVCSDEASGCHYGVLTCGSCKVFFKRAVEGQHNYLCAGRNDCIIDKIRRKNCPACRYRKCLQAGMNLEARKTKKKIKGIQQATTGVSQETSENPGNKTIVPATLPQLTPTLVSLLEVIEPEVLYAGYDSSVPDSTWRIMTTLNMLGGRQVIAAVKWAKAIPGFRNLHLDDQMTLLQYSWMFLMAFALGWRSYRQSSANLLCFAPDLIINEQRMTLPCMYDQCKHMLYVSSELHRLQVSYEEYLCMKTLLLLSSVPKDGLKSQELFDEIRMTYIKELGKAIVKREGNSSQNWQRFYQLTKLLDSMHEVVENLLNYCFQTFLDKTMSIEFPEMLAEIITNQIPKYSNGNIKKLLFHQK

Compound: C[C@]12CCC(=O)C=C1CC[C@@H]1[C@@H]2[C@@H](O)C[C@@]2(C)[C@H]1CC[C@]2(O)C(=O)CO [Hydrocortisone, hydrocortisone]
- Percent viable cells [1]: 97%
- circulating C-peptide level at week 1 post-transplantation ([2]; HC group grafts, control 2.3±0.2): 2.4 ± 0.2 nM
- circulating C-peptide level at week 5 post-transplantation ([2]; HC group grafts, control 2.6±0.2): 2.6 ± 0.4 nM
- Insulin Content, Pancreas ([2]; animals transplanted with cells from proliferation condition (HC up to day 9, then control medium)): 0.7 ± 0.2 μg/sample
- Insulin Content, Graft ([2]; animals transplanted with cells from proliferation condition (HC up to day 9, then control medium), post-transplantation week 4): 7.2 ± 1.3 μg/sample
- correction of hyperglycemia after implantation ([2]; grafts of HC-treated beta cells in abdominal fat pad): corrected hyperglycemia within one week
- Relative Potencies GR [3]: 1
